Test results as given in patent EP2222702B1, “HUMAN […] SPECIFIC ANTIBODIES” (Cytos Biotechnology AG, priority 2007, dated 2009).
Where “and” joins values, the source holds several entries; their conditions need not be identical. Equal values may be shown once. Read-outs that look alike come from different tables or passages of the source.

Columns and labels:
[1] = test system: human monoclonal nicotine-specific antibody IgG2-F018 (HCVR SEQ ID NO:24, LCVR SEQ ID NO:26); experiment: Equilibrium dialysis, affinity and competition; format: binding; settings: for Cross-reactivity: competition with tritium-labeled (S)-(-)-nicotine for binding to IgG2-F018: 56 nM tritium-labeled (S)-(-)-nicotine, IgG2-F018 50 nM, unlabeled compound 1 nM to 100 µM, acetylcholine even at a 4000 fold molar excess
Experimental: Figure 1. Specificity of IgG2-F018. The binding of tritium-labeled (-)-nicotine (56 nM) to IgG2-F018 (50 nM) was measured by equilibrium dialysis in the presence of increasing concentrations of unlabeled (-)-nicotine, (-)-cotinine or acetylcholine. Averages of two independent experiments are given with standard deviation.
(§1) Affinity of antibodies for (S)-(-)-nicotine was determined by equilibrium dialysis using a DispoEquilibriumDialyzer (Harvard Biosciences). Two chambers of the dialyzer were separated by a membrane (10'000 Da cut-off). […] Concentrations of tritium-labeled (S)-(-)-nicotine (Amersham) ranging from 3 to 444 nM were used. Equilibrium dialysis was allowed to proceed for 48-72 h. Aliquots from both sides of the chamber were taken and radioactivity measured in a scintillation counter. Radioactivity corresponding to antibody-bound (S)-(-)-nicotine was calculated by subtracting the radioactivity measured for the chamber containing no antibody from the one containing the antibody. The free (S)-(-)-nicotine concentration was determined from the radioactivity measured for the chamber containing no antibody. The equilibrium dissociation constant (Kd) was derived from the fit of a one-site binding model to the measured bound radioactivity as a function of the free (S)-(-)-nicotine concentration. […]
Cross-reactivity of mAb IgG2-F018 to (-)-cotinine and acetylcholine was determined by co-incubation of 10 fold serial dilutions of these compounds (1 nM to 100 µM) with 56 nM tritium-labeled (S)-(-)-nicotine in the equilibrium dialysis chambers as described above (Figure 1).
(§2) We next determined the affinities of mAbs IgG2-F018, -F063, -J004, -J042 and-N049 for the (R)-(+)-isomer of nicotine. This stereoisomer is present in the tobacco plant. In addition, it can be formed by the combustion process during smoking and has qualitatively similar activities on the central nervous system as (S)-(-)-nicotine (Hukkanen J. et al., 2005, Pharmacol. Rev. 57, 79-115). Thus, the binding of a fixed concentration of tritium-labeled (S)-(-)-nicotine (F018: 56 nM; F063, J004, J042, N049: 111 nM) to each of the antibodies was measured by equilibrium dialysis in the presence of increasing concentrations of unlabeled (R)-(+)-nicotine (1 nM to 100 µM). The equilibrium dissociation constant (Kd) was derived from the fit of a one-site competition model to the measured bound radioactivity as a function of the (R)-(+)-nicotine concentration. […] Table 5. Dissociation constants Kd (nM) of antibody-(R)-(+)-nicotine interactions measured by equilibrium dialysis.

[2] = molecular target: human monoclonal nicotine-specific antibody IgG2-F063 (HCVR SEQ ID NO:28, LCVR SEQ ID NO:31)
Experimental: as §1, §2

[3] = molecular target: human monoclonal nicotine-specific antibody IgG2-N049 (HCVR SEQ ID NO:39, LCVR SEQ ID NO:41)
Experimental: as §1, §2

[4] = molecular target: human monoclonal nicotine-specific antibody IgG2-J042 (HCVR SEQ ID NO:28, LCVR SEQ ID NO:37)
Experimental: as §1, §2

[5] = molecular target: human monoclonal nicotine-specific antibody IgG2-J004 (HCVR SEQ ID NO:33, LCVR SEQ ID NO:35)
Experimental: as §1, §2

[6] = molecular target: human monoclonal nicotine-specific antibody N038, scFv-Fc fusion (scFv SEQ ID NO:72; HCVR SEQ ID NO:47, LCVR SEQ ID NO:49); settings: read-out: Dissociation constant Kd, (S)-(-)-nicotine; scFv-Fc 5.4 µg/ml in PBS/2% BSA; tritium-labeled (S)-(-)-nicotine 3 to 444 nM; 48-72 h; mean ± SD of at least 2 independent experiments
Experimental: as §1

[7] = molecular target: human monoclonal nicotine-specific antibody J004, scFv-Fc fusion (scFv SEQ ID NO:64; HCVR SEQ ID NO:33, LCVR SEQ ID NO:35); settings: read-out: Dissociation constant Kd, (S)-(-)-nicotine; scFv-Fc 5.4 µg/ml in PBS/2% BSA; tritium-labeled (S)-(-)-nicotine 3 to 444 nM; 48-72 h; mean ± SD of at least 2 independent experiments
Experimental: as §1

[8] = molecular target: human monoclonal nicotine-specific antibody F018, scFv-Fc fusion (scFv SEQ ID NO:60; HCVR SEQ ID NO:24, LCVR SEQ ID NO:26); settings: read-out: Dissociation constant Kd, (S)-(-)-nicotine; scFv-Fc 5.4 µg/ml in PBS/2% BSA; tritium-labeled (S)-(-)-nicotine 3 to 444 nM; 48-72 h; mean ± SD of at least 2 independent experiments
Experimental: as §1

[9] = molecular target: human monoclonal nicotine-specific antibody N049, scFv-Fc fusion (scFv SEQ ID NO:68; HCVR SEQ ID NO:39, LCVR SEQ ID NO:41); settings: read-out: Dissociation constant Kd, (S)-(-)-nicotine; scFv-Fc 5.4 µg/ml in PBS/2% BSA; tritium-labeled (S)-(-)-nicotine 3 to 444 nM; 48-72 h; mean ± SD of at least 2 independent experiments
Experimental: as §1

[10] = molecular target: human monoclonal nicotine-specific antibody IgG2-I022 (HCVR SEQ ID NO:43, LCVR SEQ ID NO:45); settings: read-out: Dissociation constant Kd, (S)-(-)-nicotine; IgG2 7.5 µg/ml in PBS/2% BSA; tritium-labeled (S)-(-)-nicotine 3 to 444 nM; 48-72 h; mean ± SD of at least 2 independent experiments
Experimental: as §1

[11] = molecular target: human monoclonal nicotine-specific antibody F063, scFv-Fc fusion (scFv SEQ ID NO:62; HCVR SEQ ID NO:28, LCVR SEQ ID NO:31); settings: read-out: Dissociation constant Kd, (S)-(-)-nicotine; scFv-Fc 5.4 µg/ml in PBS/2% BSA; tritium-labeled (S)-(-)-nicotine 3 to 444 nM; 48-72 h; mean ± SD of at least 2 independent experiments
Experimental: as §1

[12] = molecular target: human monoclonal nicotine-specific antibody IgG2-N038 (HCVR SEQ ID NO:47, LCVR SEQ ID NO:49); settings: read-out: Dissociation constant Kd, (S)-(-)-nicotine; IgG2 7.5 µg/ml in PBS/2% BSA; tritium-labeled (S)-(-)-nicotine 3 to 444 nM; 48-72 h; measured only once
Experimental: as §1

[13] = molecular target: human monoclonal nicotine-specific antibody J042, scFv-Fc fusion (scFv SEQ ID NO:66; HCVR SEQ ID NO:28, LCVR SEQ ID NO:37); settings: read-out: Dissociation constant Kd, (S)-(-)-nicotine; scFv-Fc 5.4 µg/ml in PBS/2% BSA; tritium-labeled (S)-(-)-nicotine 3 to 444 nM; 48-72 h; mean ± SD of at least 2 independent experiments
Experimental: as §1

[14] = molecular target: human monoclonal nicotine-specific antibody I022, scFv-Fc fusion (scFv SEQ ID NO:70; HCVR SEQ ID NO:43, LCVR SEQ ID NO:45); settings: read-out: Dissociation constant Kd, (S)-(-)-nicotine; scFv-Fc 5.4 µg/ml in PBS/2% BSA; tritium-labeled (S)-(-)-nicotine 3 to 444 nM; 48-72 h; mean ± SD of at least 2 independent experiments
Experimental: as §1

[15] = molecular target: polyclonal antibodies against (S)-(-)-nicotine; settings: read-out: affinity of polyclonal antibodies against (S)-(-)-nicotine; Maurer P. et al., 2005; cited from earlier work
[16] = read-out: Dissociation constant Kd of antibody-(R)-(+)-nicotine interaction, competition with 111 nM tritium-labeled (S)-(-)-nicotine, unlabeled (R)-(+)-nicotine 1 nM to 100 µM, one-site competition model
[17] = read-out: Dissociation constant Kd, (S)-(-)-nicotine, IgG2 7.5 µg/ml in PBS/2% BSA, tritium-labeled (S)-(-)-nicotine 3 to 444 nM, 48-72 h, mean ± SD of at least 2 independent experiments

CN1C(=O)CC[C@H]1c1cccnc1 [(-)-cotinine]
Cross-reactivity: competition with tritium-labeled (S)-(-)-nicotine for binding to IgG2-F018 [1]: did not effectively compete | Binding strength relative to (S)-(-)-nicotine (fold less strongly), estimated from the IC50 observed ([1]; equilibrium dialysis competition with 56 nM tritium-labeled (S)-(-)-nicotine): about 1000 fold

CN1CCC[C@@H]1c1cccnc1 [(R)-(+)-nicotine]
Kd [2, 16]: 6.6 nM | Kd [3, 16]: 10.5 nM | Kd [4, 16]: 7.7 nM | Kd [5, 16]: 12.6 nM | Kd ([1]; competition with 56 nM tritium-labeled (S)-(-)-nicotine, unlabeled (R)-(+)-nicotine 1 nM to 100 µM, one-site competition model, read-out: Dissociation constant Kd of antibody-(R)-(+)-nicotine interaction): 3.1 nM

CN1CCC[C@H]1c1cccnc1 [(S)-(-)-nicotine]
Kd [6]: 686 ± 58 nM | Kd [7]: 33.3 ± 2 nM | Kd [8]: 11.5 ± 1.5 nM | Kd [9]: 72.7 ± 5.6 nM | Kd [10]: 89.9 ± 9.8 nM | Kd [11]: 70.5 ± 14 nM | Kd [12]: 744 nM | Kd [13]: 47 ± 3.1 nM | Kd [14]: 42.5 ± 17 nM | Kd [2, 17]: 31.4 ± 13 nM | Kd [3, 17]: 35.6 ± 3.5 nM | Kd [4, 17]: 30.2 ± 11 nM | Kd [5, 17]: 64.5 ± 2.2 nM | Cross-reactivity: competition with tritium-labeled (S)-(-)-nicotine for binding to IgG2-F018 [1]: readily displaced | Kd ([1]; IgG2 7.5 µg/ml in PBS/2% BSA, tritium-labeled (S)-(-)-nicotine 3 to 444 nM, 48-72 h, mean ± SD of at least 2 independent experiments, read-out: Dissociation constant Kd, (S)-(-)-nicotine): 7 nM and 7.4 nM | Kd [15]: 30 to 70 nM
